Data on 7 compounds can be found in ChEMBL document CHEMBL5143732 (J Med Chem, 2022).

For orientation: MIC means the least concentration at which growth counts as inhibited. A word on the HC50: it is the concentration giving 50% haemolysis.

Molecules are shown by their SMILES. ≈ marks a conversion by molar mass, not a printed value.

For one data set, the system named is Cryptococcus neoformans. In words: Antifungal activity against Cryptococcus neoformans ATCC 32609 assessed as inhibition of fungal growth measured after 48 hrs by CLSI based agar dilution method. Type of data set: functional. (In agar dilution the substance is mixed into plates at graded concentrations.)
For data set [1], the system named is Pichia kudriavzevii. Briefly: Antifungal activity against Candida krusei assessed as inhibition of fungal growth measured after 48 hrs by CLSI based agar dilution method. Type of data set: functional.
A further data set deals with Candida parapsilosis. In words: Antifungal activity against Candida parapsilosis assessed as inhibition of fungal growth measured after 48 hrs by CLSI based agar dilution method. Type of data set: functional. As to conditions: Lodderomyces parapsilosis.
The nature of data set [2]: Hemolytic activity in human RBC measured after 1 hr. Type of data set: toxicity, cell-based, Erythrocyte. The settings on record: red blood cells (erythrocytes).
Another data set deals with Candida albicans. Briefly: Antifungal activity against Candida albicans assessed as inhibition of fungal growth measured after 48 hrs by CLSI based agar dilution method. Type of data set: functional.
Data set [3] concerns Pichia kudriavzevii. In words: Antifungal activity against Candida krusei ATCC 6258 assessed as inhibition of fungal growth measured after 48 hrs by CLSI based agar dilution method. Type of data set: functional.
The test system of a further data set is Candida tropicalis. Briefly: Antifungal activity against Candida tropicalis assessed as inhibition of fungal growth measured after 48 hrs by CLSI based agar dilution method. Type of data set: functional.

As to `CNCC(=O)N[C@@H]1[C@H](O)[C@H](O[C@H]2/C=C/C=C/C=C/C=C/C=C/C=C/C=C/[C@H](C)[C@@H](O)[C@@H](C)[C@H](C)OC(=O)C[C@H](O)C[C@H](O)CC[C@@H](O)[C@H](O)C[C@H](O)C[C@]3(O)C[C@H](O)[C@@H](C(=O)NCCO)[C@H](C2)O3)O[C@H](C)[C@H]1O`, the MIC in the data set on Cryptococcus neoformans was found to be 0.5 µg/mL (≈ 0.482 µM); in the data set on Pichia kudriavzevii [1], 1 µg/mL (≈ 0.963 µM); with Candida parapsilosis, 2 µg/mL (≈ 1.93 µM); in the data set with Candida albicans, 1 µg/mL (≈ 0.963 µM); in the data set with Pichia kudriavzevii [3], 0.125 µg/mL (≈ 0.12 µM); in the data set with Candida tropicalis, 2 µg/mL (≈ 1.93 µM). In data set [2], this compound displayed an HC50 at 1 h of 1780 nM.
On to `COC(=O)NNC(=O)[C@H]1[C@@H]2C[C@@H](O[C@@H]3O[C@H](C)[C@@H](O)[C@H](NC(=O)CCN)[C@@H]3O)/C=C/C=C/C=C/C=C/C=C/C=C/C=C/[C@H](C)[C@@H](O)[C@@H](C)[C@H](C)OC(=O)C[C@H](O)C[C@H](O)CC[C@@H](O)[C@H](O)C[C@H](O)C[C@](O)(C[C@@H]1O)O2`, for which the minimal inhibitory concentration (MIC) in the data set with Cryptococcus neoformans was 0.25 µg/mL (≈ 0.234 µM); in the data set on Pichia kudriavzevii [1] it was 0.5 µg/mL (≈ 0.468 µM); in the data set with Candida parapsilosis it was 8 µg/mL (≈ 7.5 µM); with Candida albicans, 0.25 µg/mL (≈ 0.234 µM); with Pichia kudriavzevii [3], 8 µg/mL (≈ 7.5 µM); with Candida tropicalis, 8 µg/mL (≈ 7.5 µM).
As to `CNCC(=O)N[C@@H]1[C@H](O)[C@H](O[C@H]2/C=C/C=C/C=C/C=C/C=C/C=C/C=C/[C@H](C)[C@@H](O)[C@@H](C)[C@H](C)OC(=O)C[C@H](O)C[C@H](O)CC[C@@H](O)[C@H](O)C[C@H](O)C[C@]3(O)C[C@H](O)[C@@H](C(=O)NCCN(C)C)[C@H](C2)O3)O[C@H](C)[C@H]1O`, the MIC turned out to be 0.5 µg/mL (≈ 0.469 µM) in the data set on Cryptococcus neoformans; 2 µg/mL (≈ 1.88 µM) in the data set with Pichia kudriavzevii [1]; 2 µg/mL (≈ 1.88 µM) in the data set with Candida parapsilosis; 2 µg/mL (≈ 1.88 µM) in the data set on Candida albicans; 16 µg/mL (≈ 15 µM) in the data set with Pichia kudriavzevii [3]; 4 µg/mL (≈ 3.75 µM) in the data set on Candida tropicalis.
With `CNCC(=O)N[C@@H]1[C@H](O)[C@H](O[C@H]2/C=C/C=C/C=C/C=C/C=C/C=C/C=C/[C@H](C)[C@@H](O)[C@@H](C)[C@H](C)OC(=O)C[C@H](O)C[C@H](O)CC[C@@H](O)[C@H](O)C[C@H](O)C[C@]3(O)C[C@H](O)[C@@H](C(=O)N4CCN(C(=O)COCCOC)CC4)[C@H](C2)O3)O[C@H](C)[C@H]1O`, the MIC in the data set with Cryptococcus neoformans stood at 4 µg/mL (≈ 3.39 µM); with Pichia kudriavzevii [1], 8 µg/mL (≈ 6.78 µM); in the data set on Candida parapsilosis, 4 µg/mL (≈ 3.39 µM); in the data set with Candida albicans, 4 µg/mL (≈ 3.39 µM); in the data set with Pichia kudriavzevii [3], 16 µg/mL (≈ 13.6 µM); in the data set with Candida tropicalis it was 16 µg/mL (≈ 13.6 µM).
As to `C[C@@H]1[C@H](O)[C@@H](C)/C=C/C=C/C=C/C=C/C=C/C=C/C=C/[C@H](O[C@@H]2O[C@H](C)[C@@H](O)[C@H](NC(=O)CCN)[C@@H]2O)C[C@@H]2O[C@](O)(C[C@@H](O)C[C@@H](O)[C@H](O)CC[C@@H](O)C[C@@H](O)CC(=O)O[C@H]1C)C[C@H](O)[C@H]2C(=O)NCCN`, the MIC with Cryptococcus neoformans was determined as 0.25 µg/mL (≈ 0.241 µM); in the data set with Pichia kudriavzevii [1], 0.5 µg/mL (≈ 0.482 µM); in the data set with Candida parapsilosis, 0.125 µg/mL (≈ 0.121 µM); in the data set on Candida albicans, 0.125 µg/mL (≈ 0.121 µM); with Pichia kudriavzevii [3] it was 1 µg/mL (≈ 0.964 µM); in the data set on Candida tropicalis it was 0.25 µg/mL (≈ 0.241 µM).
`CNCC(=O)N[C@@H]1[C@H](O)[C@H](O[C@H]2/C=C/C=C/C=C/C=C/C=C/C=C/C=C/[C@H](C)[C@@H](O)[C@@H](C)[C@H](C)OC(=O)C[C@H](O)C[C@H](O)CC[C@@H](O)[C@H](O)C[C@H](O)C[C@]3(O)C[C@H](O)[C@@H](C(=O)N4CCN(C(C)=O)CC4)[C@H](C2)O3)O[C@H](C)[C@H]1O`: the MIC with Cryptococcus neoformans is 2 µg/mL (≈ 1.81 µM); in the data set on Pichia kudriavzevii [1], 4 µg/mL (≈ 3.62 µM); with Candida parapsilosis, 4 µg/mL (≈ 3.62 µM); in the data set with Candida albicans, 2 µg/mL (≈ 1.81 µM); in the data set with Pichia kudriavzevii [3] it was 8 µg/mL (≈ 7.24 µM); in the data set with Candida tropicalis it was 4 µg/mL (≈ 3.62 µM).
In the case of `C[C@@H]1[C@H](O)[C@@H](C)/C=C/C=C/C=C/C=C/C=C/C=C/C=C/[C@H](O[C@@H]2O[C@H](C)[C@@H](O)[C@H](N)[C@@H]2O)C[C@@H]2O[C@](O)(C[C@@H](O)C[C@@H](O)[C@H](O)CC[C@@H](O)C[C@@H](O)CC(=O)O[C@H]1C)C[C@H](O)[C@H]2C(=O)NNC(=O)c1ccccc1`, the MIC is 0.5 µg/mL (≈ 0.48 µM) in the data set on Cryptococcus neoformans; 1 µg/mL (≈ 0.959 µM) in the data set with Pichia kudriavzevii [1]; 4 µg/mL (≈ 3.84 µM) in the data set on Candida parapsilosis; 0.5 µg/mL (≈ 0.48 µM) in the data set on Candida albicans; 2 µg/mL (≈ 1.92 µM) in the data set with Pichia kudriavzevii [3]; 4 µg/mL (≈ 3.84 µM) in the data set on Candida tropicalis.
